Reference: ChEMBL document CHEMBL1201862, “PubChem BioAssay data set” (2004)
Active and inactive are the calls of the source.

Legend:
[1] = target: Epstein-Barr nuclear antigen 1 (Epstein-Barr virus (strain B95-8) (HHV-4) (Human herpesvirus 4), UniProt P03211); experiment: inhibition of EBV nuclear antigen 1 DNA binding – biochemical, fluorescence polarization, 1536-well, dose response (AID 2381); set-up: species or system human gammaherpesvirus 4;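 further: fluorescence polarization of a Cy5 DNA probe bound by EBNA-1 protein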
[2] = target: Lytic switch protein BZLF1 (Epstein-Barr virus (strain B95-8) (HHV-4) (Human herpesvirus 4), UniProt P03206); experiment: inhibition of BZLF1 ZTA DNA binding – biochemical, fluorescence polarization, Epstein-Barr virus, 1536-well, counter-screen for EBNA-1 inhibitor project, dose response (AID 2377); set-up: species or system human gammaherpesvirus 4;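 further: fluorescence polarization of Cy5-labelled ZRE DNA probe bound by purified Zta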
[3] = target: T1, E3 ubiquitin-protein ligase XIAP (Homo sapiens, UniProt P98170); experiment: Counter Screen using XIAP-Bir3 for Chemical Antagonists of Bir1/2 domains of IAP-family anti-apoptotic proteins. [Related pubchem assays (depositor defined):AID1018, AID1449, AID1514, AID1638, AID1749, AID1750, AID488957, AID488963]
[4] = target: T1, E3 ubiquitin-protein ligase XIAP; experiment: small molecules displacing peptide from XIAP – biochemical, IAP family, fluorescence polarization (AID 1018); format: functional
[5] = HPDE-C7 pancreatic duct cell viability loss – fluorescence, HTS (AID 430); format: functional, cell-based; details: Homo sapiens
[6] = Trypanosoma cruzi growth suppression in host cells – NIH3T3 host cells, beta-gal luminescence, confirmation (AID 2044); format: functional, cell-based;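 further: intracellular parasites grown in NIH/3T3 mouse fibroblasts as host cells; luminescent beta-galactosidase reporter signal from transgenic T. cruzi replicating inside host cells; inhibitors lower the luminescence signal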
[7] = viability loss of HPDE-C7K cells – cell-based, fluorescence, HTS, primary screen (AID 431); format: functional; details: Homo sapiens
[8] = NIH3T3 cell viability loss – ATP luminescence, mouse fibroblasts, counter-screen, dose response (AID 2010); format: functional, cell-based;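 further: cells exposed to compound for about 90 hours before reading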
[9] = target: Glucose-6-phosphate 1-dehydrogenase (Homo sapiens, UniProt P11413); experiment: inhibition of Homo sapiens G6PD, dose series – biochemical, fluorescence, selectivity assay for P. falciparum G6PD inhibitor project, dose response (AID 504792); format: functional
[10] = target: Neurotensin receptor type 1 (Homo sapiens, UniProt P30989); format: functional;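 further: Image-based confirmatory dose-response assay measuring agonist activity at NTR1; NTR1-expressing U2OS osteosarcoma cells imaged for beta-arrestin GFP spot formation; agonist potency where compounds increase beta-arrestin recruitment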
[11] = tested on: Vero; experiment: cells; format: functional; details: Chlorocebus sabaeus
[12] = reduction of Shn3 3'UTR-driven luciferase in osteoblasts – cell-based, Clone20 osteoblasts, firefly luciferase, cherry-picked, dose response (AID 624132); format: functional;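 further: firefly luciferase luminescence from reporter carrying the Shn3 3'UTR in osteoblasts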
[13] = loss of viability in HepG2 cells – cell-based, CellTiter-Glo, cherry-picked, cytotoxicity control for Shn3 inhibitor project, dose response (AID 624134); format: functional
[14] = non-specific 3'UTR reporter inhibition in Clone20-Shn3RL – cell-based, Renilla luciferase, cherry-picked, counter-screen for Shn3 inhibitor project, dose response (AID 624133); format: functional
[15] = target: Luciferin 4-monooxygenase (Photinus pyralis, UniProt P08659); experiment: Counter Screen for Luciferase-based Assay Positives. [Related pubchem assays: 620, 618, 411 ]
[16] = tested on: HT-1080; experiment: HT1080 cell viability loss – fluorescence readout (AID 620); format: functional, cell-based; details: Homo sapiens
[17] = target: T2, Estrogen receptor (Homo sapiens, UniProt P03372);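 further: potency for inhibiting coactivator peptide recruitment to the receptor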
T2 sequence (P03372 whole entry): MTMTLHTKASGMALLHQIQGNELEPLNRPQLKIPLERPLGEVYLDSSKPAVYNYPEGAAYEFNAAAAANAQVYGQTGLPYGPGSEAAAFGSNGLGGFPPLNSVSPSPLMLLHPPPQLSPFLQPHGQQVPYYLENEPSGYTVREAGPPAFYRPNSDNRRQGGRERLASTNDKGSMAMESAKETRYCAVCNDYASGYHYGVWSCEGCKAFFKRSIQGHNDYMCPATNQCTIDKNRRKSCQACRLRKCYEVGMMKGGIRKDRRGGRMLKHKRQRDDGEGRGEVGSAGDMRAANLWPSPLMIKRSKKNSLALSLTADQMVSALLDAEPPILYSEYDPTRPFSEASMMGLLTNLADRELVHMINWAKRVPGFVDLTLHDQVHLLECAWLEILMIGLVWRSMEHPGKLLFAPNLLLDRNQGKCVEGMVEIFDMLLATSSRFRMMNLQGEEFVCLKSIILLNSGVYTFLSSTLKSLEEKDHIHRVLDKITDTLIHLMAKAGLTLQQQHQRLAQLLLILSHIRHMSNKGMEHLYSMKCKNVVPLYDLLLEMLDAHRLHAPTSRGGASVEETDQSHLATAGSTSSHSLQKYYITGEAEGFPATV

[18] = target: Peroxisome proliferator-activated receptor gamma/Nuclear receptor coactivator 2 (Homo sapiens, UniProt P37231); format: functional;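 further: agonist potency for raising coactivator recruitment to the receptor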
[19] = target: Peroxisome proliferator-activated receptor gamma/Nuclear receptor coactivator 1 (Homo sapiens, UniProt P37231); format: functional;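 further: agonist potency as compounds enhance coactivator SRC-1 recruitment to PPARgamma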
[20] = target: Peroxisome proliferator-activated receptor gamma/Nuclear receptor coactivator 3 (Homo sapiens, UniProt P37231); format: functional;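 further: agonist potency for raising coactivator recruitment to the receptor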
[21] = target: Cytochrome P450 2C19 (Homo sapiens, UniProt P33261); experiment: Cytochrome panel assay with activity outcomes. Panel member name: p450-cyp2c19 Compounds with AC50 equal or less than 10 uM are considered active; format: functional; details: read-out: AC50
[22] = target: Cytochrome P450 2C9 (Homo sapiens, UniProt P11712)
Cytochrome P450 2C9, sequence (P11712 whole entry): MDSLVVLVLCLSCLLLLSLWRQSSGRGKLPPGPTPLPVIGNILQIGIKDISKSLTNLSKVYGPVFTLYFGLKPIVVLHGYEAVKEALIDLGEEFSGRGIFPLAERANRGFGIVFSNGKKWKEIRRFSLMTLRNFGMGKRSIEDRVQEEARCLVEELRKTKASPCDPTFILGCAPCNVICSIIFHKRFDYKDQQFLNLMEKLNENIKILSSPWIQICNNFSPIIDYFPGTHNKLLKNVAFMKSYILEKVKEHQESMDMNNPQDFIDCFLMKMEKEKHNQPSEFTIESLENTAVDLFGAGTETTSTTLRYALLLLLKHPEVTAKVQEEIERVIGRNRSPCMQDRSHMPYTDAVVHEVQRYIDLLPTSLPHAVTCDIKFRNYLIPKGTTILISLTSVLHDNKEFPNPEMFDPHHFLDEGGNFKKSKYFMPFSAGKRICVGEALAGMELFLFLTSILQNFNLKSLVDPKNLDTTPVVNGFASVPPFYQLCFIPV

T1 sequence (P98170 whole entry): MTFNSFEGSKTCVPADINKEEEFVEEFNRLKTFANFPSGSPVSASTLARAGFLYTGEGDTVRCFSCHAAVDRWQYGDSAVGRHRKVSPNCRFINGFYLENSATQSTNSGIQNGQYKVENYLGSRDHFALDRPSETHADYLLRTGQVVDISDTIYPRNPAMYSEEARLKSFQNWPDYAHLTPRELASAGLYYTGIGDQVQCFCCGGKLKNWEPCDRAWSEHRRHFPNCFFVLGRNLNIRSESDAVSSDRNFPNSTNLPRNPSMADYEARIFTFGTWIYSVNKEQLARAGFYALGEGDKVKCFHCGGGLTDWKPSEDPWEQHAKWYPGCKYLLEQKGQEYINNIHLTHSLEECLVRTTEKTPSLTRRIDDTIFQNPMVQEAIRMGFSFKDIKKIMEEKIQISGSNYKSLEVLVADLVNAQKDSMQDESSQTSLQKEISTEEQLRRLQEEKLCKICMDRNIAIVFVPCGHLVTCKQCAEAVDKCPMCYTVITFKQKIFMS
Glucose-6-phosphate 1-dehydrogenase, sequence (P11413 whole entry): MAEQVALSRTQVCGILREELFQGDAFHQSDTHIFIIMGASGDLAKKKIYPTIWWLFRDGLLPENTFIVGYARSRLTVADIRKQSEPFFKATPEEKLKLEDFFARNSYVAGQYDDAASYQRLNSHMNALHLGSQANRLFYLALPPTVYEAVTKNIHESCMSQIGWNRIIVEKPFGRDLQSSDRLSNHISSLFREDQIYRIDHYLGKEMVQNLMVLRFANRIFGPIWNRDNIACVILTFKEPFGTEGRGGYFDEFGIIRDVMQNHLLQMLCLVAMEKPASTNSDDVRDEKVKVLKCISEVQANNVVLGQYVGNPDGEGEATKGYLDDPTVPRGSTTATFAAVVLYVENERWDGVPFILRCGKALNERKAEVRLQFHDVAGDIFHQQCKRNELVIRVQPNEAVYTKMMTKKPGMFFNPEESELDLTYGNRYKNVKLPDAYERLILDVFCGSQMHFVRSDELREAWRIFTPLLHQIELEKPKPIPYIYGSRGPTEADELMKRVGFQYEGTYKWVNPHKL
Epstein-Barr nuclear antigen 1, sequence (P03211 whole entry): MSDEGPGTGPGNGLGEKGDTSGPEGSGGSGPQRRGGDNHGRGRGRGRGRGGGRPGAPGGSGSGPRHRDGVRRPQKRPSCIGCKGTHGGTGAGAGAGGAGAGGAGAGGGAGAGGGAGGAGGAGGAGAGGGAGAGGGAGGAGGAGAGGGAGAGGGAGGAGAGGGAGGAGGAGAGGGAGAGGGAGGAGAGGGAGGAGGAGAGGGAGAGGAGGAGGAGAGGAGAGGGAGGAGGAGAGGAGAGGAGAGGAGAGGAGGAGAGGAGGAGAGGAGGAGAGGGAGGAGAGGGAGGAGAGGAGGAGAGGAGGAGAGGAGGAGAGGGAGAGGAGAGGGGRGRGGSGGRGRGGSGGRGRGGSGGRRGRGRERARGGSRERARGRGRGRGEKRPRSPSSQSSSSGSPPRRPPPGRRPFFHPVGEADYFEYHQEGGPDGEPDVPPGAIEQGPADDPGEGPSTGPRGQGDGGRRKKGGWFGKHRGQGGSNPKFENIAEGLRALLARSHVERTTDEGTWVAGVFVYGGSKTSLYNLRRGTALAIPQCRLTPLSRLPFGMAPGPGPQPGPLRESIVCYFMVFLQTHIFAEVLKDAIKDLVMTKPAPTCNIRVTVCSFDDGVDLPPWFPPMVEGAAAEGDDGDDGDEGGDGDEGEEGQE
Neurotensin receptor type 1, sequence (P30989 whole entry): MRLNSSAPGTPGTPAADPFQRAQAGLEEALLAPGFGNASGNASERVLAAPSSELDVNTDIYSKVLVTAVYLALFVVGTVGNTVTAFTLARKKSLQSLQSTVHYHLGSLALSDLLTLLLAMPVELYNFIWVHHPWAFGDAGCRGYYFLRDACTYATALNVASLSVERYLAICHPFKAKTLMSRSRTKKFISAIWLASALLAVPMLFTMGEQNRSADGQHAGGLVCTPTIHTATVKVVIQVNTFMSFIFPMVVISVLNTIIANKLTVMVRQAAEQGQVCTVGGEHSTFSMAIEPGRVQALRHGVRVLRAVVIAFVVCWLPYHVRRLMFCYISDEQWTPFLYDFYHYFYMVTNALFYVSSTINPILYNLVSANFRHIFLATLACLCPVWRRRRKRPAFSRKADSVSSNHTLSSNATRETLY
Luciferin 4-monooxygenase, sequence (P08659 whole entry): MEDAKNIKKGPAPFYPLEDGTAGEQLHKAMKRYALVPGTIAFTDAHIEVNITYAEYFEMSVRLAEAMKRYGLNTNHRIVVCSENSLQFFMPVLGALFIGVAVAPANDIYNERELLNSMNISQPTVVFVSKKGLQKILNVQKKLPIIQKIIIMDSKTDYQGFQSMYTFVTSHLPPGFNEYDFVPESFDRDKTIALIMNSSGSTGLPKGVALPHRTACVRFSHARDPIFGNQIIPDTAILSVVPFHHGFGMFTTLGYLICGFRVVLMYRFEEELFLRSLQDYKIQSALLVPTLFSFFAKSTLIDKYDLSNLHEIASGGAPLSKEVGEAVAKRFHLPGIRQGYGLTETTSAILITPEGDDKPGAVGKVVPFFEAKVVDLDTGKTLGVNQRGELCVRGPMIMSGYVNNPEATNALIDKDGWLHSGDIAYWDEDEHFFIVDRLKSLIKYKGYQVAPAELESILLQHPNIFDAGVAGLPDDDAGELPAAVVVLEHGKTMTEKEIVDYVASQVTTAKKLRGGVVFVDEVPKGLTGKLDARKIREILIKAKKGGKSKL
Lytic switch protein BZLF1, sequence (P03206 whole entry): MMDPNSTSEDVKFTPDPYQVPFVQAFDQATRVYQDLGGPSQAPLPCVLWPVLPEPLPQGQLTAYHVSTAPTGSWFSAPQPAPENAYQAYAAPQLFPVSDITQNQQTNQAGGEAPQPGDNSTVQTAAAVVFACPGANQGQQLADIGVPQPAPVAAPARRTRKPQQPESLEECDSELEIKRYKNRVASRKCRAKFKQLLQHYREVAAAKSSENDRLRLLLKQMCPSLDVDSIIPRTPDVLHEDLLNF
Cytochrome P450 2C19, sequence (P33261 whole entry): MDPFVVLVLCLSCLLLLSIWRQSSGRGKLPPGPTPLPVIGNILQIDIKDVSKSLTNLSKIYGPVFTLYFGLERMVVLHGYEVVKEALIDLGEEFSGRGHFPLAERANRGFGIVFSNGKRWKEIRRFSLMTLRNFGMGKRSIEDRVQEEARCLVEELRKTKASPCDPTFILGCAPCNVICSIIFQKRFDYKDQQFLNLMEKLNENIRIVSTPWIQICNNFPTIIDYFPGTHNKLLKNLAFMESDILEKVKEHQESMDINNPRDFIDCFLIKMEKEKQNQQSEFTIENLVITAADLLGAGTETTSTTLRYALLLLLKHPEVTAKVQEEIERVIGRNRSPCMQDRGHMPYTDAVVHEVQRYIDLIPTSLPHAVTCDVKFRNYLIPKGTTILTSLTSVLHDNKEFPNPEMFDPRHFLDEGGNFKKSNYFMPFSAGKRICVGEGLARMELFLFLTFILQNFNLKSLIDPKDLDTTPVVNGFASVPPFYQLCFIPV

Q: For `O=C(COC(=O)/C=C/c1ccccc1)Nc1cc(C(F)(F)F)ccc1N1CCOCC1`, which IC50 [1] is on record?
A: Its IC50 is 7.3 µM (active).

Q: And the IC50 [2]?
A: The IC50 was > 111 µM (not active).

Q: What does the source list for `Cc1sc2nc(CN(C(=O)NC3CCCCC3)C3CCCCC3)nc(O)c2c1C`?
A: IC50 [3]: > 100 µM (inactive); IC50 [4]: > 100 µM (not active)

Q: With `O=C(Nc1ccc(N2CCN(C(=O)c3ccco3)CC2)c(Cl)c1)c1cc2ccccc2o1` as the compound, how does the EC50 [5] read?
A: The EC50 was 17.5 µM (active).

Q: What about the EC50 [6] of the same compound?
A: Its EC50 is 2.3 µM (active).

Q: What about the EC50 [7] of the same compound?
A: Its EC50 is 16.2 µM (active).

Q: And the EC50 [8]?
A: The EC50 was 8.95 µM (active).

Q: And the IC50 [9]?
A: Its IC50 is > 80 µM (inactive).

Q: What about the EC50 [10] of the same compound?
A: The EC50 was 6 µM (active).

Q: What about the CC50 [11] of the same compound?
A: Its CC50 is 11.2 µM (active).

Q: And the AC50 [12]?
A: Its AC50 is 5 µM (active).

Q: And the AC50 [13]?
A: Its AC50 is 7.49 µM (active).

Q: What about the AC50 [14] of the same compound?
A: The AC50 was 17.6 µM (active).

Q: With `Fc1ccccc1OCCSc1nnnn1-c1ccccc1` as the compound, how does the EC50 [15] read?
A: Its EC50 is 3.32 µM (active).

Q: And the EC50 [16]?
A: Its EC50 is > 50 µM (not active).

Q: For `CCOC(=O)C1=C(Nc2ccc(C)cc2)S/C(=C\c2cn(CC(=O)NCC3CCCO3)c3ccccc23)C1=O` (configuration not stated), which IC50 [17] is on record?
A: The IC50 was 7.6 µM (active).

Q: With `CCOC(=O)c1sc2nc(CC(=O)OC)nc(NCc3ccc(F)cc3)c2c1C` as the compound, how does the EC50 [18] read?
A: Its EC50 is > 79.4 µM (not active).

Q: What about the EC50 [19] of the same compound?
A: Its EC50 is > 79.4 µM (not active).

Q: And the EC50 [20]?
A: The EC50 was > 79.4 µM (not active).

Q: What about the AC50 [21] of the same compound?
A: The AC50 was 5.62 µM (inconclusive).

Q: What about the AC50 [22] of the same compound?
A: Its AC50 is 5.01 µM (inconclusive).
